Measurements taken from ChEMBL document CHEMBL4804281, “STK4 inhibitors for treatment of hematologic malignancies” (2020).
Calls of active or inactive are those of the source. The rule behind the calls is not given here.

Tests used:
MM1.S [1] = assay: Downregulation of phosphorylated-MOB1 protein level in human MM1.S cells at 1 to 10 uM measured after 6 hrs by Western blot analysis; type: functional, cell-based; conditions: dose 1-10 µM
[2] = target: T1, Serine/threonine-protein kinase 3 (Homo sapiens) (UniProt Q13188); assay: Inhibition of STK3 (unknown origin) using fluorescein-labelled Ser/Thr-07 peptide as substrate incubated for 1 hr in presence of ATP at Km concentration by Z-LYTE assay
T1 sequence (whole entry): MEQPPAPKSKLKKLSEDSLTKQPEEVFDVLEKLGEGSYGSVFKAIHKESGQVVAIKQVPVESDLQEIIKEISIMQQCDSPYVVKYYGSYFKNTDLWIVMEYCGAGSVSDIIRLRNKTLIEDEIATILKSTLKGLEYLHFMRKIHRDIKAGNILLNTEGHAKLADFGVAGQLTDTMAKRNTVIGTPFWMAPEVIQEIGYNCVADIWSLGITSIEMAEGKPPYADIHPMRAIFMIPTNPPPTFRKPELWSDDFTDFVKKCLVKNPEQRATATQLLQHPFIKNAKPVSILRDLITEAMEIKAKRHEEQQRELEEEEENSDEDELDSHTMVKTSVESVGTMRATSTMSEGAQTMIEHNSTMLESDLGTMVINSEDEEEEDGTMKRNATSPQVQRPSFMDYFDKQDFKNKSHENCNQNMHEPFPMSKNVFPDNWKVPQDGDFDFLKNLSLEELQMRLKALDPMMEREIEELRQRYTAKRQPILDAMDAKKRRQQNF

[3] = target: T2, Serine/threonine-protein kinase 4 (Homo sapiens) (UniProt Q13043); assay: Inhibition of STK4 (unknown origin) using fluorescein-labelled Ser/Thr-07 peptide as substrate incubated for 1 hr in presence of ATP at Km concentration by Z-LYTE assay
T2 sequence (whole entry): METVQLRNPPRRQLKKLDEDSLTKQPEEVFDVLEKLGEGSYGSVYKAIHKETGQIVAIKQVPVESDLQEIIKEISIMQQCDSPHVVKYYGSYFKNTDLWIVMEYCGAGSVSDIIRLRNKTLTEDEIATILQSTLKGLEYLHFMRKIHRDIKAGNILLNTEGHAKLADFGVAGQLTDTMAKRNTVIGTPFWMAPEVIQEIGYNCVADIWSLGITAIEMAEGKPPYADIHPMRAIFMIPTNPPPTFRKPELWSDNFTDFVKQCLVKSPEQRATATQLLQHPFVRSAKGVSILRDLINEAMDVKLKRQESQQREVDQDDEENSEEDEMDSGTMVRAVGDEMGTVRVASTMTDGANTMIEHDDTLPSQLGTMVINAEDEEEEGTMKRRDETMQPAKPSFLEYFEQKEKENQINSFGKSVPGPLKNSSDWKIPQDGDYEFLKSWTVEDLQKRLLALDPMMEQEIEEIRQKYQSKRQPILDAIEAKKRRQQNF

[4] = target: Serine/threonine-protein kinase 24 (Homo sapiens) (UniProt Q9Y6E0); assay: Inhibition of STK24 (unknown origin) using fluorescein-labelled Ser/Thr-07 peptide as substrate incubated for 1 hr in presence of ATP at Km concentration by Z-LYTE assay
Sequence of Serine/threonine-protein kinase 24 (Homo sapiens) (Q9Y6E0 whole entry, looked up): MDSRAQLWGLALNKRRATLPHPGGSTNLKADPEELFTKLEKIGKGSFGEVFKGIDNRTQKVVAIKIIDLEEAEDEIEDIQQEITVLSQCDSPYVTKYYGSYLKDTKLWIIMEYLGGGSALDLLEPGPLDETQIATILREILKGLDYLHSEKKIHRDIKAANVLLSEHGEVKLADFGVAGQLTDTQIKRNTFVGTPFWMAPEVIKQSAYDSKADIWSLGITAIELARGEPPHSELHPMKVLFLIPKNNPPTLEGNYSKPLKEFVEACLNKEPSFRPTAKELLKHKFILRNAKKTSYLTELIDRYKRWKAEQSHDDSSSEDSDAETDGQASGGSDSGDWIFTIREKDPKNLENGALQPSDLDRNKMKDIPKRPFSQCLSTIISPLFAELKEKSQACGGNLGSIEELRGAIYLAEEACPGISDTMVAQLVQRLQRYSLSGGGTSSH

NCI-H929 [5] = assay: Upregulation of YAP1 protein level in human NCI-H929 cells at 3 to 10 uM measured after 72 hrs by Western blot analysis; type: functional, cell-based; conditions: dose 3-10 µM
MM1.S [6] = assay: Upregulation of YAP1 protein level in human MM1.S cells at 3 to 10 uM measured after 72 hrs by Western blot analysis; type: functional, cell-based; conditions: dose 3-10 µM
MM1.S [7] = assay: Upregulation of YAP1 protein level in human MM1.S cells at 1 uM measured after 16 hrs by Western blot analysis; type: functional, cell-based
[8] = target: T1, Serine/threonine-protein kinase 3 (Homo sapiens); assay: Inhibition of wild-type human partial length MST2 (D17 to E318 residues) expressed in bacterial expression system by Kinomescan method
[9] = target: Interleukin-1 receptor-associated kinase 1 (Homo sapiens) (UniProt P51617); assay: Inhibition of wild-type human partial length IRAK1 (R194 to S712 residues) expressed in mammalian expression system by Kinomescan method
Sequence of Interleukin-1 receptor-associated kinase 1 (Homo sapiens) (P51617 whole entry, looked up, the tested form may be a part): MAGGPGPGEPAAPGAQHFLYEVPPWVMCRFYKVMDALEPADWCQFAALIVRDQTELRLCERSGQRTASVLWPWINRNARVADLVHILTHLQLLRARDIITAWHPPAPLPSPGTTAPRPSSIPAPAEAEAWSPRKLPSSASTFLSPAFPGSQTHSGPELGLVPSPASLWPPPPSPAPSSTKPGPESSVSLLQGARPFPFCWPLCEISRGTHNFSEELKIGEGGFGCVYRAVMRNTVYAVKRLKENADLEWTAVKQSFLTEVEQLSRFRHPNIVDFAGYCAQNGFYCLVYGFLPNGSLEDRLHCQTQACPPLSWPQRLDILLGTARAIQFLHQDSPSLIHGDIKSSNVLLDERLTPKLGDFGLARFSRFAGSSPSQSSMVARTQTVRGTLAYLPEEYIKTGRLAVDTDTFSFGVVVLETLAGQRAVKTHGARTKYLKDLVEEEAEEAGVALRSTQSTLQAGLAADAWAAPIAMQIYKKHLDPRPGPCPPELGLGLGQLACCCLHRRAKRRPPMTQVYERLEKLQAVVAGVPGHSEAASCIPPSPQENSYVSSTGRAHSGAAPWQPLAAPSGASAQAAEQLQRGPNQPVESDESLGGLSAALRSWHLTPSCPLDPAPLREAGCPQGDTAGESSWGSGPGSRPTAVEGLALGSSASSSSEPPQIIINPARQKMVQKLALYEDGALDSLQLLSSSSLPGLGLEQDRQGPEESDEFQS

NCI-H929 [10] = assay: Upregulation of YAP1 protein level in human NCI-H929 cells at 1 to 10 uM measured after 16 hrs by Western blot analysis; type: functional, cell-based; conditions: dose 1-10 µM
MM1.S [11] = assay: Upregulation of YAP1 protein level in human MM1.S cells at 1 to 10 uM measured after 16 hrs by Western blot analysis; type: functional, cell-based; conditions: dose 1-10 µM
[12] = target: Casein kinase I isoform gamma-3 (Homo sapiens) (UniProt Q9Y6M4); assay: Inhibition of wild-type human full length CSNK1G3 (M1 to K447 residues) expressed in bacterial expression system by Kinomescan method
Sequence of Casein kinase I isoform gamma-3 (Homo sapiens) (Q9Y6M4 whole entry, looked up, the tested form may be a part, canonical isoform): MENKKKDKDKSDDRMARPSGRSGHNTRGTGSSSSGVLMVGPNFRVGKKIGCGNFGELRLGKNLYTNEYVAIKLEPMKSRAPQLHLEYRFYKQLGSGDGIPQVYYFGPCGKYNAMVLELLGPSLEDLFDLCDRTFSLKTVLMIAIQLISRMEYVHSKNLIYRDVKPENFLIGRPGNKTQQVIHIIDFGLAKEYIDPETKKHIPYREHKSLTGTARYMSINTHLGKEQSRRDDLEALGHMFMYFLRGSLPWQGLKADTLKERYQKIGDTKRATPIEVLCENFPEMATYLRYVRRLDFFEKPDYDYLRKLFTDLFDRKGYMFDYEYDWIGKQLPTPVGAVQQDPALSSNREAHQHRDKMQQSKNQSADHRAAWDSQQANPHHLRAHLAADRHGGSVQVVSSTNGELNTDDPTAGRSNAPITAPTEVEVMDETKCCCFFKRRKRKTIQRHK

[13] = target: Serine/threonine-protein kinase 26 (Homo sapiens) (UniProt Q9P289); assay: Inhibition of MST4 (unknown origin) using fluorescein-labelled Ser/Thr-07 peptide as substrate incubated for 1 hr in presence of ATP at Km concentration by Z-LYTE assay
Sequence of Serine/threonine-protein kinase 26 (Homo sapiens) (Q9P289 2-416 limits assumed): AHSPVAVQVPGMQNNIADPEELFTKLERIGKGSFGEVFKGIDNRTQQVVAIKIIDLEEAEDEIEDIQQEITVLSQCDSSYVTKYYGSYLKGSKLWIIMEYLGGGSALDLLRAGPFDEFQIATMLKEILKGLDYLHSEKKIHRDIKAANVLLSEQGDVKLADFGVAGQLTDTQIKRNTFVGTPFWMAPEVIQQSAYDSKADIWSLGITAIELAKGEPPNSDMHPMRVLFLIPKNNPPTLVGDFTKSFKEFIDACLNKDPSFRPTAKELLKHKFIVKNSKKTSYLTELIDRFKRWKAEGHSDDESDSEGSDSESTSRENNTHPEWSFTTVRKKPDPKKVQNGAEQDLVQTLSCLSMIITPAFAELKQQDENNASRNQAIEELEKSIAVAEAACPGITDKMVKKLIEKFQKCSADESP

[14] = target: Casein kinase I isoform epsilon (Homo sapiens) (UniProt P49674); assay: Inhibition of wild-type human full length CSNK1E (M1 to K416 residues) expressed in bacterial expression system by Kinomescan method
Sequence of Casein kinase I isoform epsilon (Homo sapiens) (P49674 whole entry, looked up, the tested form may be a part, canonical isoform): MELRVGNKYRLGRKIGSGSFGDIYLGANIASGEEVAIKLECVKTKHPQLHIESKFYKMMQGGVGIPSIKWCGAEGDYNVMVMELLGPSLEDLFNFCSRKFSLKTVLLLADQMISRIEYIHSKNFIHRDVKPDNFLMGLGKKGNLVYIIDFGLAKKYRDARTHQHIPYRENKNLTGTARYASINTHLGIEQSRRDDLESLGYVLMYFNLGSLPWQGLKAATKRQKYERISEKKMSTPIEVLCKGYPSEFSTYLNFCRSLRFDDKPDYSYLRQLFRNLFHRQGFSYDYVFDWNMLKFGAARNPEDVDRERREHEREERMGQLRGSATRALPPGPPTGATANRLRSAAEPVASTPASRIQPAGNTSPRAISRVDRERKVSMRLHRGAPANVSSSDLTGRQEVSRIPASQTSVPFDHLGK

IC50 [3] [nM]	Structure (SMILES)	other results
40	Nc1ncc(-c2cc([N+](=O)[O-])c(Cl)cc2F)cc1-c1ccc2c(c1)CCNC2=O	Activity (MM1.S [1]): Active; IC50 [2]: 40 nM
< 40	CN(C1CC1)S(=O)(=O)c1ccc(-c2cnc(N)c(-c3ccc4c(=O)[nH]cnc4c3)c2)c(F)c1	–
> 900	Nc1ncc(-c2cc([N+](=O)[O-])ccc2Cl)cc1-c1ccc2c(c1)CCNC2=O	–
40	COc1cc(S(=O)(=O)N(C)C2CCCCC2)ccc1-c1cnc(N)c(-c2ccc3c(c2)CCNC3=O)c1	–
< 40	CC(C)Oc1cc(NS(=O)(=O)C2CC2)ccc1-c1cnc(N)c(-c2ccc3c(c2)CCNC3=O)c1	–
> 900	Nc1ncc(-c2cc(F)ccc2[N+](=O)[O-])cc1-c1ccc2c(c1)CCNC2=O	–
40	N#Cc1cccc(-c2cnc(N)c(-c3ccc4c(c3)CCNC4=O)c2)c1	IC50 [2]: 40 nM; IC50 [4]: 200 nM
40	Nc1ncc(-c2cc([N+](=O)[O-])c(NCc3ccccc3)cc2F)cc1-c1ccc2c(c1)CCNC2=O	Activity (MM1.S [1]): Active
< 40	CN(C1CC1)S(=O)(=O)c1ccc(-c2cnc(N)c(-c3ccc4c(c3)CNC4=O)c2)c(F)c1	IC50 [2]: < 40 nM; IC50 [4]: > 900 nM
200	Nc1ncc(-c2cc([N+](=O)[O-])cnc2F)cc1-c1ccc2c(c1)CCNC2=O	–
40	C#Cc1cc(F)c(-c2cnc(N)c(-c3ccc4c(c3)CCNC4=O)c2)cc1[N+](=O)[O-]	–
40	Nc1ncc(-c2cc([N+](=O)[O-])cc(F)c2F)cc1-c1ccc2c(c1)CCNC2=O	–
< 40	Nc1ncc(-c2ccc(NS(=O)(=O)C3CC3)cc2OC2CCCC2)cc1-c1ccc2c(c1)CCNC2=O	–
40	Nc1ncc(-c2cccc(S(=O)(=O)NC3CC3)c2)cc1-c1ccc2c(c1)CCNC2=O	IC50 [2]: 40 nM; IC50 [4]: 200 nM; Activity (NCI-H929 [5]): Active; Activity (MM1.S [6]): Active
200	Nc1ncc(-c2cnccc2F)cc1-c1ccc2c(c1)CCNC2=O	–
40	Nc1ncc(-c2ccc3ncsc3c2)cc1-c1ccc2c(c1)CCNC2=O	–
40	Nc1ncc(-c2ccc([N+](=O)[O-])cc2F)cc1-c1ccc2c(c1)CCNC2=O	–
40	CN1CCc2cc(-c3cc(-c4cccc5ncsc45)cnc3N)ccc2C1=O	–
< 40	Nc1ncc(-c2cccc(-c3nccs3)c2)cc1-c1ccc2c(c1)CCNC2=O	–
40	Cn1cnc2c(-c3cnc(N)c(-c4ccc5c(c4)CCNC5=O)c3)cccc21	–
40	Nc1ncc(-c2ccccc2F)cc1-c1ccc2c(c1)CCNC2=O	–
40	Cc1cc(N2CCOCC2)cc2[nH]c(-c3c(NC[C@@H](O)c4cccc(Cl)c4)cc[nH]c3=O)nc12	Activity (MM1.S [7]): inactive
40	Nc1ncc(-c2cc(F)cc([N+](=O)[O-])c2)cc1-c1ccc2c(c1)CCNC2=O	–
40	Nc1ncc(-c2ccc(F)c3ncsc23)cc1-c1ccc2c(c1)CNC2=O	–
< 40	Nc1ncc(-c2cc([N+](=O)[O-])ccc2F)cc1-c1ccc2c(c1)CCNC2=O	Activity (MM1.S [1]): Active; Kd [8]: 42.6 nM; Kd [9]: 110 nM; Activity (NCI-H929 [10]): Active; Activity (MM1.S [11]): Active; Kd [12]: 4.68 nM; IC50 [13]: > 900 nM; IC50 [2]: 40 nM; IC50 [4]: > 900 nM; Kd [14]: 201 nM
40	Nc1ncc(-c2cccc3scnc23)cc1-c1ccc2c(c1)CCNC2=O	–
< 40	Nc1ncc(-c2cccc(NS(=O)(=O)C3CC3)c2)cc1-c1ccc2c(c1)CCNC2=O	–

IC50 [3] [nM]	Structure (SMILES)	other results
> 900	COc1ccncc1-c1cnc(N)c(-c2ccc3c(c2)CCNC3=O)c1	–
< 40	COc1cc(S(=O)(=O)N(C)C2CC2)ccc1-c1cnc(N)c(-c2ccc3c(c2)CCNC3=O)c1	IC50 [2]: < 40 nM; IC50 [4]: 40 nM
< 40	CC(C)Oc1cc(S(=O)(=O)N(C)C2CC2)ccc1-c1cnc(N)c(-c2ccc3c(c2)CNC3=O)c1	–
40	Nc1ncc(-c2scnc2Cl)cc1-c1ccc2c(c1)CCNC2=O	IC50 [2]: 40 nM; IC50 [4]: > 900 nM
> 900	CCNC(=O)c1ccc(F)c(-c2cnc(N)c(-c3ccc4c(c3)CCNC4=O)c2)c1	–
< 40	Cc1cc(S(=O)(=O)N(C)C2CC2)ccc1-c1cnc(N)c(-c2ccc3c(c2)CCNC3=O)c1	–
< 40	CN(C1CC1)S(=O)(=O)c1ccc(-c2cnc(N)c(-c3ccc4c(c3)CCNC4=O)c2)cc1	Activity (MM1.S [7]): Active
40	Nc1ncc(-c2ccc(NS(=O)(=O)C3CC3)cc2OCc2ccccc2)cc1-c1ccc2c(c1)CCNC2=O	–
< 40	C#Cc1ccc(-c2cnc(N)c(-c3ccc4c(c3)CCNC4=O)c2)c(OC)c1	–
< 40	Nc1ncc(-c2cccc3sccc23)cc1-c1ccc2c(c1)CCNC2=O	–
< 40	Nc1ncc(-c2cc3c(cc2F)OCC(=O)N3)cc1-c1ccc2c(c1)CCNC2=O	Activity (MM1.S [1]): Active; IC50 [2]: 40 nM
200	Nc1ncc(-c2cncc3ncsc23)cc1-c1ccc2c(c1)CCNC2=O	–
40	COc1cc(-c2nccs2)ccc1-c1cnc(N)c(-c2ccc3c(c2)CCNC3=O)c1	–
< 40	Nc1ncc(-c2ccc(F)c3ncsc23)cc1-c1ccc2c(c1)CCNC2=O	–
< 40	Nc1ncc(-c2cccc([N+](=O)[O-])c2)cc1-c1ccc2c(c1)CCNC2=O	–
200	Nc1ncc(-c2cccc(S(N)(=O)=O)c2)cc1-c1ccc2c(c1)CCNC2=O	–
< 40	CN1CCc2cc(-c3cc(-c4ccc(S(=O)(=O)N(C)C5CC5)cc4F)cnc3N)ccc2C1=O	–
< 40	COc1cc(S(=O)(=O)NC2CC2)ccc1-c1cnc(N)c(-c2ccc3c(c2)CCNC3=O)c1	–
40	COc1cc(S(=O)(=O)N(C)C2CCOCC2)ccc1-c1cnc(N)c(-c2ccc3c(c2)CCNC3=O)c1	–
< 40	CCOc1cc(S(=O)(=O)N(C)C2CC2)ccc1-c1cnc(N)c(-c2ccc3c(c2)CCNC3=O)c1	–
< 40	CC(C)Oc1cc(S(=O)(=O)N(C)C2CC2)ccc1-c1cnc(N)c(-c2ccc3c(c2)CCNC3=O)c1	–
200	NC(=O)c1ccc(-c2cc(-c3cc([N+](=O)[O-])ccc3F)cnc2N)cc1	–
40	Nc1ncc(-c2cc(-c3cccc4ncsc34)ccc2F)cc1-c1ccc2c(=O)[nH]cnc2c1	–
40	Nc1ncc(-c2cc3scnc3cc2F)cc1-c1ccc2c(c1)CCNC2=O	–
200	NC(=O)c1ccc(-c2cc(-c3cc([N+](=O)[O-])ccc3F)cnc2N)cc1Cl	–
200	N#Cc1cc(-c2cc(-c3cc([N+](=O)[O-])ccc3F)cnc2N)ccc1O	–
